Assay results from patent US20080152736A1, “Lipid Fraction of Nigella Sativa L. Seeds” (priority 2004, published 2008).

How the values were obtained:
[1] = tested on: Corynebacterium pyogenes; experiment: In vitro antimicrobial comparison, bore method (zone of inhibition); assay type: cell-based; details: Ampicillin 1: g/mg; mean ± S.E. of 4 observations
Procedure: (§1) The comparative antibacterial activity of ampicillin (1 microg/mg) and the Nigella sativa L. lipid fraction (1 mg/ml) against Staphylococcus pyogenes, Corynebacterium pyogenes and Salmonella typhi murium was performed in vitro using the bore method described by Cooper and Woodman (1964).

[2] = tested on: Salmonella typhi murium; experiment: as above; assay type: cell-based; details: Ampicillin 1: g/mg; mean ± S.E. of 4 observations
Procedure: as §1

[3] = tested on: Staphylococcus pyogenes; experiment: as above; assay type: cell-based; details: Ampicillin 1: g/mg; mean ± S.E. of 4 observations
Procedure: as §1

[4] = tested on: guinea pigs exposed to histamine aerosol (0.25%); experiment: Prophylactic anti-asthmatic effect, preconvulsive time on histamine aerosol; assay type: in vivo; details: ketotifen 50: g/kg, treated for 21 days; histamine (0.25%) aerosol
Procedure: This example explains in vivo studies to evaluate the prophylactic (protective) anti-asthmatic effect of the Nigella sativa L. lipid fraction of the present invention. The prophylactic anti-asthmatic effect was evaluated in vivo by measurement of the preconvulsive time in guinea pigs exposed to histamine aerosol (0.25%).
Guinea pigs were divided into three groups with 8 animals per group. The first group received saline with injection to serve as negative control. The second group received ketotifen, which is the standard treatment to serve as positive control. The third group received 200 mg/kg each of the Nigella sativa L. lipid fraction of the present invention.
Animals in all groups were treated for 21 days following, after which they were exposed to histamine (0.25%) aerosol and the preconvulsive time was recorded.

[5] = tested on: sensitized guinea pigs exposed to ova albumin inhalation; experiment: Tachypnea protective effect in ova albumin sensitized animals; assay type: in vivo; details: ketotifen 50: g/kg, treated for 21 days
Procedure: This experiment was an in vivo study to evaluate the tachypnea (protective) effect of the Nigella sativa L. lipid fraction of the present invention. The second protocol involved sensitized animals. Animals were sensitized by injecting ova albumin in two doses 100 mg each (S.C. and I.P., simultaneously). Animals were resensitized 15 days later. Guinea pigs were divided into three groups with 8 animals per group. The first group received a saline injection to serve as negative control. The second group received ketotifen which is the standard treatment to serve as positive control. The third group received 200 mg/kg each of the Nigella sativa L. lipid fraction of the present invention. Animals in all groups were treated for 21 days following which they were exposed to ova albumin inhalation and time to onset of tachypnea was recorded as shown in the table below.

[6] = 16 published human studies, total of 590 subjects; cited from earlier work

CC1(C)S[C@@H]2[C@H](NC(=O)[C@H](N)c3ccccc3)C(=O)N2[C@H]1C(=O)O [Ampicillin, ampicillin]
Diameter of Zone of inhibition [1]: 44.7 ± 0.8 mm
Diameter of Zone of inhibition [2]: 13.1 ± 0.2 mm
Diameter of Zone of inhibition [3]: 26.7 ± 0.3 mm

CN1CCC(=C2c3ccccc3CC(=O)c3sccc32)CC1 [ketotifen]
% of Prophylaxis (Protection) [4]: 82.85%
% of Prophylaxis [5]: 44.4%

phytosterol
average reduction in total cholesterol [6]: 10%
reduction in LDL cholesterol levels [6]: 13%
